Laboratory results as given in patent EP0364581A1, “METHOD OF STERILIZING PLANT POLLEN” (VSESOJUZNY NAUCHNO-ISSLEDOVATELSKY INST. SELSKOKHOZYAISTV. …, priority 1988, dated 1989).

Tests used:
Experiment in all cases: field test of gametocidal activity (sterilisation of anthers)
[1] = test system: Winterweizens Sorte Polesskaya-70; type: in vivo, Winterweizen; conditions: V. Periode, 2%ige wäßrige Emulsion, 16 kg/ha; for Prozentsatz des Ansetzens bei freier Bestäubung: control = 100
Text: (§1) Die gametozide Aktivität der erfindungsgemäßen Sterilisationsmittel war in Feldversuch in verschiedenen bodenklimatischen Zonen mit Teilstücken von 10 m^2 Größe in drei-- bis viermaliger Wiederholung nachgewiesen. Jedes Sterilisationsmittel wurde mindestens 5 Jahre lang geprüft.
(§2) Die Entwicklung der Perioden der Organogenese wird zytologisch überwacht. Die Behandlung von Pflanzen mit dem Sterilisationsmittel erfolgt am Anfang der fünften Periode der Organogenese nach Kupermann.
(§3) Mit dem Ahrenschieben verwirklicht man die Isolierung von Hauptähren und anderen Stockwerken in Pergamentbeuteln. Bei Weizen und Tritikale werden Einzelisolatoren verwendet. Bei Roggen schließt man je 1 Ähre von 5 bis 7 verschiedenen nebeneinander befindlichen Pflanzen in einen gemeinsamen Isolator ein. Bei Hirse wird jede Rispe getrennt isoliert. Der Sterilitätsprozentsatz (X) für Weizen, Roggen, Tritikale und Hirse wird nach der Formel [formula]
(§4) Samen von unbehandelten Kontrollpflanzen ermittelt.
(§5) Die Kornzahl in nicht isolierten Ähren von Kontrollpflanzen wird bedingt für 100% Ansetzen bei freier Bestäubung angenommen.
(§6) Um zuverlässige Angaben zu erhalten, verwendet man 20 bis 25 Isolatoren jeder Wiederholung für Weizen und Tritikale, 10 bis 15 Isolatoren jeder Wiederholung für Roggen und Hirse.
Pflanzen des Winterweizens Sorte Polesskaya-70 behandelt man in der V. Periode der Organogenese durch Zerstäubund einer 2%igen wäßrigen Emulsion von Phthalsäurediäthylester, Phthalsäurediallylester, Phthalsäuredihexylester, Kaliumsalz der 2-Methyl-3-zyklohexenkarbonsäure, Ammoniumsalz der 2-Methyl-3-zyklohexenkarbonsäure mit Hilfe einer Rückenspritze. Die Emulsion enthält 0,01 Masse% Tetrahydrofuran und 0,1 Masse% C12 -C14 -Kalziumalkylbenzolsulfonat.
Der Verbrauch an Präparat beträgt 16 kg/ha. Als Kontrolle dienen Pflanzen, behandelt mit dem Verdünner ohne Sterilisationsmittel.

[2] = test system: Winterweizens Sorte Kharkovskaya 81; type: in vivo, Winterweizen; conditions: V. und VI. Periode, 2%ige wäßrige Emulsion, 12 kg/ha; for Prozentsatz des Ansetzens der Körner bei freier Bestäubung: control = 100
Text: as §1, §2, §3, §4, §5, §6
Pflanzen des Winterweizens Sorte Kharkovskaya 81 werden in der V. und VI. Periode der Organogenese (nach Kupermann) mit einer 2%igen wäßrigen Emulsion von Natriumsalz der 2-Methyl-3-zyklohexenkarbonsäure, Phthalsäuredihexylester, Ammoniumsalz der 2-Methyl-3-zyklohexenkarbon- säure, Phthalsäuredibutylester, Phthalsäurediallylester behandelt. Die Emulsion enthält 0,01 Masse% Dodezylsulfat und 0,1 Masse% C12-C14 -Kalziumalkylbenzolsulfonat. Der Verbrauch an Präparat beträgt 12 kg/ha.
Die Prüfergebnisse sind in der Tabelle 4 angeführt. Als Kontrolle dienten Pflanzen, behandelt ähnlich wie in Beispiel 1.

[3] = test system: Hirse Sorte K-9693 Kormovoe I; type: in vivo; conditions: V. Periode, 1%ige wäßrige Emulsion, 8 kg/ha
Text: as §1, §2, §3, §4, §5, §6
Pflanzen der Hirse Sorte K-9693 Kormovoe I werden in der V. Periode der Organogenese (nach Kupermann) mit einer 1%igen wäßrigen Emulsion von Ammoniumsalz der 2-Methyl-3-zyklo- nexenkarbonsäure, Phthalsäuredipropylester, Phthalsäuredibutylester, Phthalsäurediisobutylester, 2-Methyl-3-zyklo- hexenkarbonsäuremethylester, Phthalsäuredihexylester behandelt. Die Emulsion enthält 0,01 Masse% Dodezylsulfat und 0,1 Masse% C12-C14-Kalziumalkylbenzolsulfonat. Der Verbrauch an Präparat beträgt 8 kg/ha. Als Kontrolle dienen Pflanzen, behandelt mit einem Verdünner ohne Sterilisationsmittel. Die Prüfergebnisse sind in der Tabelle 18 angeführt. […] Periode der Organogenese erhalten.

Row | Structure (SMILES) | Kornzahl der Ähre bei freier Bestäubung [1] | Kornzahl der Ähre im Isolator [1] | Prozentsatz der Sterilität [1] | Prozentsatz des Ansetzens bei freier Bestäubung [1] | Kornzahl der Ähre bei freier Bestäubung [2] | Kornzahl der Ähre im Isolator [2] | Prozentsatz der Sterilität [2] | Prozentsatz des Ansetzens der Körner bei freier Bestäubung [2] | other results
1 | CC1C=CCCC1C(=O)O.N (centres unmarked) [Beispiel 13, Ammoniumsalz der 2-Methyl-3-zyklohexenkarbonsäure] | 36,9 | 3,7 | 89,2% | 97,6% | – | – | – | – | –
2 | CC1C=CCCC1C(=O)[O-].[K+] (centres unmarked) [Beispiel 12, Kaliumsalz der 2-Methyl-3-zyklohexenkarbonsäure] | 35,8 | 0,0 | 100,0% | 94,7% | – | – | – | – | –
3 | CCCCCCOC(=O)c1ccccc1C(=O)OCCCCCC [Beispiel 11, Phthalsäuredihexylester] | 36,0 | 0,1 | 99,7% | 95,2% | – | – | – | – | –
4 | C=CCOC(=O)c1ccccc1C(=O)OCC=C [Beispiel 22, Phthalsäurediallylester] | – | – | – | – | 30,6 | 3,1 | 90,3% | 90,3% | –
5 | CCOC(=O)c1ccccc1C(=O)OCC [Beispiel 9, Phthalsäurediäthylester] | 36,8 | 0,2 | 99,4% | 97,4% | – | – | – | – | –
6 | CC1C=CCCC1C(=O)O.N (centres unmarked) [Beispiel 20, Ammoniumsalz der 2-Methyl-3-zyklohexenkarbon-säure] | – | – | – | – | 31,7 | 0,0 | 100,0% | 93,5% | –
7 | CC1C=CCCC1C(=O)[O-].[Na+] (centres unmarked) [Beispiel 18, Natriumsalz der 2-Methyl-3-zyklohexenkarbonsäure] | – | – | – | – | 32,6 | 0,2 | 99,4% | 96,2% | –
8 | C=CCOC(=O)c1ccccc1C(=O)OCC=C [Beispiel 10, Phthalsäurediallylester] | 35,6 | 6,2 | 82,0% | 94,1% | – | – | – | – | –
9 | CCCCCCOC(=O)c1ccccc1C(=O)OCCCCCC [Beispiel 19, Phthalsäuredihexylester] | – | – | – | – | 30,8 | 0,0 | 100,0% | 90,8% | –
10 | CC1C=CCCC1C(=O)O.N (centres unmarked) [Beispiel 97, Ammoniumsalz der 2-Methyl-3-zyklo-nexenkarbonsäure] | – | – | – | – | – | – | – | – | Kornzahl der Rispe bei freier Bestäubung [3]: 121,6; Kornzahl der Rispe im Isolator [3]: 0,0; Prozentsatz der Sterilität [3]: 100,0%; Prozentsatz des Ansetzens der Körner bei freier Bestäubung ([3]; control = 100): 82,9%
11 | CCCCOC(=O)c1ccccc1C(=O)OCCCC [Beispiel 21, Phthalsäuredibutylester] | – | – | – | – | 28,6 | 0,0 | 100,0% | 84,4% | –
